This test deals with T1, human KV1.3 channels (Homo sapiens, UniProt P22001).
T1 construct: gene KCNA3; homotetramer
Nature of the test: whole-cell patch clamp, CHO cells. The class given is cell-based. For orientation: Patch clamp records ionic current or voltage across a cell membrane.

The source of these data is paper PMC4348164, “Evidence of more ion channels inhibited by celecoxib: KV1.3 and L-type Ca^2+ channels” (BMC Research Notes, 2015).

T1 sequence (P22001 whole entry): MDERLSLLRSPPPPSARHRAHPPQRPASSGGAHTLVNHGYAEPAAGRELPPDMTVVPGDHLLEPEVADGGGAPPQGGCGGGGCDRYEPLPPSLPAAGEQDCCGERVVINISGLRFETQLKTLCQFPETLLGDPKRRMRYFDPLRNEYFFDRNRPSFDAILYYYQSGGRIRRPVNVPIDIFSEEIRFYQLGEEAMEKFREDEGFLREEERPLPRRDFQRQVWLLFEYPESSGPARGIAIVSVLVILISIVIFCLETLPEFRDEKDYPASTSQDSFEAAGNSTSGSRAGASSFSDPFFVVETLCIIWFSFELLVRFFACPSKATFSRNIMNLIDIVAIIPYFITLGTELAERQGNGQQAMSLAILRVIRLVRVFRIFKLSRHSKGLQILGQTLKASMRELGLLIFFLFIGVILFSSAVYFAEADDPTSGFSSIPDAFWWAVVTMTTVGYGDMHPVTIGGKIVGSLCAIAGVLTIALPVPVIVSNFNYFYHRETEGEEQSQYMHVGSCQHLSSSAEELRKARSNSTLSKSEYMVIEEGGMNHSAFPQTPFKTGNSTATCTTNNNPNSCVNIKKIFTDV

By IC50 is commonly meant the concentration that gives 50% inhibition. `Cc1ccc(-c2cc(C(F)(F)F)nn2-c2ccc(S(N)(=O)=O)cc2)cc1` [celecoxib] had an IC50 of 5 µM.
